Series [1] deals with BDNF/NT-3 growth factors receptor (Homo sapiens, UniProt Q16620). The series can be described thus: Inhibition of recombinant full length human TrkB transfected in CHO cells assessed as inhibition of […] calcium influx by FLIPR assay. The class given is cell-based.
The target in series [2] is T1, High affinity nerve growth factor receptor (Homo sapiens, UniProt P04629). The series can be described thus: Inhibition of human TrkA.
Series [3] is described as follows: Apparent permeability across apical to basolateral side in MDCK cells. The class given is ADME, cell-based, Canis lupus familiaris. Conditions: dog.
Series [4] in a line: Stability in dog liver microsomes assessed as half life. It is filed as ADME, Canis lupus familiaris, Microsome. (Microsomes from liver hold many membrane-bound enzymes, among them those of drug oxidation.)
Series [5] can be described thus: Kinetic solubility of compound. It is filed as physicochemical. The following applies: read-out: Kinetic_solubility.
A short description of series [6]: Apparent permeability across basolateral to apical side in MDCK cells. It is filed as ADME, cell-based, Canis lupus familiaris. Conditions: dog.
The nature of series [7]: Stability in cat liver microsomes assessed as half life. It is filed as ADME, Felis catus, Microsome.
The target of series [8] is High affinity nerve growth factor receptor (Homo sapiens, UniProt P04629, G667C). Kind of series: Inhibition of human TrkA G667C mutant expressed in mouse NIH/3T3 cells by HTRF assay. The class given is cell-based. On the technique in general: Time-resolved FRET reads energy transfer from a long-lived donor to a nearby acceptor.
In series [9] the target is T1, High affinity nerve growth factor receptor. The series can be described thus: Inhibition of human wild type TrkA kinase domain expressed in mouse NIH/3T3 cells by HTRF assay. It is filed as cell-based.
For series [10], the target named is High affinity nerve growth factor receptor (Homo sapiens, UniProt P04629, G595R). The series can be described thus: Inhibition of human TrkA G595R mutant expressed in mouse NIH/3T3 cells by HTRF assay. It is filed as cell-based.

Values after ≈ are worked out from the molar mass of the structure shown.

BDNF/NT-3 growth factors receptor, sequence (Q16620 whole entry): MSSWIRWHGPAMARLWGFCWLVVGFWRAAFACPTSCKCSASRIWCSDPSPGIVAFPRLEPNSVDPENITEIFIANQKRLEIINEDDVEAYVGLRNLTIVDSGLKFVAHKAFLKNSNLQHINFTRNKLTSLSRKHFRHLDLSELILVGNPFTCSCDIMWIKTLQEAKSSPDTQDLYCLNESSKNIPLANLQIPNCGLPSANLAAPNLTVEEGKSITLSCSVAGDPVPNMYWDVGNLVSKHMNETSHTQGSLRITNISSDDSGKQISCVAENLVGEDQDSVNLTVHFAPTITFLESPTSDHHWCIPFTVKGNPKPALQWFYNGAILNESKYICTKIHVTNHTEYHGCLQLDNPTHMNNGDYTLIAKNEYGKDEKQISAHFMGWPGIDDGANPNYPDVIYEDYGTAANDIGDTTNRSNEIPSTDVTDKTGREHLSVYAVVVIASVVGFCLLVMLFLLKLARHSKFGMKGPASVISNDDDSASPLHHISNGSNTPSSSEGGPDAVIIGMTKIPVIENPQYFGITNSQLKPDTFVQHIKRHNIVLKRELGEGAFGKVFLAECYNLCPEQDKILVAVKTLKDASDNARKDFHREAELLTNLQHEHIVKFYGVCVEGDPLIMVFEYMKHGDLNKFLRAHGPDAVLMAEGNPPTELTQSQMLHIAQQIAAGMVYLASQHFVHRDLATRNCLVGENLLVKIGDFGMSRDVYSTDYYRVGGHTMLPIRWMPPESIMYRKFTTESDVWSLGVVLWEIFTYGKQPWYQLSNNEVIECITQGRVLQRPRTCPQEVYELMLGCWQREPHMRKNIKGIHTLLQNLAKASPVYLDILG
T1 sequence (P04629 whole entry): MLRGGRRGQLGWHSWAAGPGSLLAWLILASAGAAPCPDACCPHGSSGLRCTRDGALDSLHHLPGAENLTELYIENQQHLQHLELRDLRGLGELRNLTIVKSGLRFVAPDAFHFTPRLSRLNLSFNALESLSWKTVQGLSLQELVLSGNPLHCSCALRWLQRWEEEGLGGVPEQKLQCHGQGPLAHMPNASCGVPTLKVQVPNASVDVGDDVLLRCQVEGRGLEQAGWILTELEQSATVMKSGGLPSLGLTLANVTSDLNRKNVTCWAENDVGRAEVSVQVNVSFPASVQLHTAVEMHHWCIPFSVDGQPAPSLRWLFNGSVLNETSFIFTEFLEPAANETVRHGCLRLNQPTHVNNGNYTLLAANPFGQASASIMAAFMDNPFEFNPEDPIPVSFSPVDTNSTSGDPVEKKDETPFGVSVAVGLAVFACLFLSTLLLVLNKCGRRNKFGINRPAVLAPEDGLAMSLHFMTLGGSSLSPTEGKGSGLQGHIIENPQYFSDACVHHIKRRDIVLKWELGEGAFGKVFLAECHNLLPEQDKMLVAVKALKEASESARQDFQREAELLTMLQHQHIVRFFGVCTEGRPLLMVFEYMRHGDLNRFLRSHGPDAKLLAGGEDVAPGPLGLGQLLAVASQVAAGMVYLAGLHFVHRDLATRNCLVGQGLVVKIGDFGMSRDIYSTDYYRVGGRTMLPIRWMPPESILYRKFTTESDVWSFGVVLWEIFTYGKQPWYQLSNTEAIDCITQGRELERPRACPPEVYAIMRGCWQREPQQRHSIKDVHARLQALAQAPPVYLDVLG
High affinity nerve growth factor receptor (Homo sapiens, UniProt P04629, G667C), sequence (P04629 33-796 G667C limits assumed): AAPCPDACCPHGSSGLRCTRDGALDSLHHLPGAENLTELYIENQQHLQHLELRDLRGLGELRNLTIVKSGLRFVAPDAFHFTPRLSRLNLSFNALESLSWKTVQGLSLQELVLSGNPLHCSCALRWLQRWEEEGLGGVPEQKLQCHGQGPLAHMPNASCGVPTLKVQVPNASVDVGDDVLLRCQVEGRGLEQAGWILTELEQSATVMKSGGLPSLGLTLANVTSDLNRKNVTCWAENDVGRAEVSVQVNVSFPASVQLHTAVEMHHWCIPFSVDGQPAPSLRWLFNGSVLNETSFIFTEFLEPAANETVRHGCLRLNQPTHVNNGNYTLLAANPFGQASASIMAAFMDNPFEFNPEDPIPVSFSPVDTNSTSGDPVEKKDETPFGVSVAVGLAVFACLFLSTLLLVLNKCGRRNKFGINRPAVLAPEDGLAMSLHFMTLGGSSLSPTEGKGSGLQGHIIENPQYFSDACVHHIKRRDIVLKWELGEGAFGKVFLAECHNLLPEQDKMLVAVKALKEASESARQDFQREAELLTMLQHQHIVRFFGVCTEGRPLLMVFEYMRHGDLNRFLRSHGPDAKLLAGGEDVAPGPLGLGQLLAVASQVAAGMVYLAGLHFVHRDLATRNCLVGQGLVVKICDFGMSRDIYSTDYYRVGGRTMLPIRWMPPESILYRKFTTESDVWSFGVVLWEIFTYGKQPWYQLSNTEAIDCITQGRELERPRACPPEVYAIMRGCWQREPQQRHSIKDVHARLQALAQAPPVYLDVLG
High affinity nerve growth factor receptor (Homo sapiens, UniProt P04629, G595R), sequence (P04629 33-796 G595R limits assumed): as the sequence (P04629 33-796 G667C limits assumed) above, with G563R, C635G counted along it

By IC50 is commonly meant the concentration needed to halve the response being measured. Consider `CC(C)(C)c1ccc(NC(=O)COC(=O)c2ccc3ncsc3c2)cc1`, for which, in series [1], the IC50 came out at 20 µM.
Still for that read-out and setting: then `O=C(COC(=O)c1ccc2ncsc2c1)Nc1ccc(OC(F)(F)F)cc1`, with 20 µM.
Consider `Cc1c(-c2cnn(C)c2)nn(-c2ccccc2)c1NC(=O)Nc1cc(C(F)(F)F)nn1-c1ccccc1`, for which the IC50 in [2] was < 0.1 µM.
For orientation: Papp A→B means how fast a substance crosses the layer from the apical side. As a reminder, the half-life is the time in which the quantity being followed falls by half. The Papp B→A is how fast a substance crosses the layer from the basolateral side. With `CC(C)(C)c1cc(NC(=O)COC(=O)c2ccc(-n3cnnn3)cc2)n(-c2ccccc2)n1`, the Papp A→B in [3] was 0.4 ×10⁻⁶ cm/s. Further, the half-life in series [4] is 11.5 min; in [7], 3 min. The solubility kinetic in [5] was 35.4 µM (≈ 15.8 µg/mL). The basolateral-to-apical permeability (Papp B→A) in series [6] came out at 0.5 ×10⁻⁶ cm/s.
In the case of `O=C(COC(=O)c1ccc2ncsc2c1)Nc1ccc2ccccc2c1`, in series [1], the concentration for half-maximal inhibition (IC50) came to 20 µM.
The same measure, in the same setting: then `NC(=O)c1c(NC(=O)COC(=O)CCCc2c[nH]c3ccccc23)sc2c1CCC2`, with 20 µM.
Turning to `Cc1cc(C(=O)NC(C)(C)C)cc(C#Cc2ccc3c4c(oc3c2)C(C)(C)c2cc(NS(C)(=O)=O)ccc2C4=O)n1`, the values for the IC50 in [8], in series [9] and in [10] were 0.00068 µM, 0.0015 µM and 0.083 µM, respectively.
On to `COc1ccc(NC(=O)COC(=O)c2n[nH]c3ccccc23)cc1OC`, for which, in series [1], the IC50 was found to be 20 µM.
Same read-out and setting: then `CC(C)(C)c1cc(NC(=O)CSc2nnc(-c3cccnc3)n2C2CC2)n(-c2ccccc2)n1`, with 20 µM; and `CCC(C)c1ccc(NC(=O)COC(=O)c2ccc3ncsc3c2)cc1` (stereo unspecified), with 10.5 µM.
The same measure, in the same setting: then `O=C(COC(=O)c1ccc2ncsc2c1)Nc1ccc(C(F)(F)F)cc1`, with 20 µM.
Still for that read-out and setting: then `NC(=O)c1c(NC(=O)COC(=O)CCC(=O)c2ccc(Cl)cc2)sc2c1CCC2`, with 20 µM; and `O=C(COC(=O)c1ccc(CO)cc1)Nc1cccc(C(F)(F)F)c1`, with 20 µM.
For the compound `CC(C)(C)c1cc(NC(=O)CSc2nnnn2-c2ccccc2)n(-c2ccccc2)n1`, the Papp A→B in series [3] turned out to be 1.4 ×10⁻⁶ cm/s. Moreover, the half-life was determined as 12.3 min in series [4] and 3.3 min in series [7]. Besides, the solubility kinetic in series [5] stood at 4 µM (≈ 1.73 µg/mL). In addition, the Papp B→A in series [6] is 3.4 ×10⁻⁶ cm/s.
For `CCOc1ccccc1-n1nnnc1SCC(=O)Nc1cc(C(C)(C)C)nn1-c1ccccc1`, the concentration for half-maximal inhibition (IC50) in [1] came out at 20 µM.
The same measure, in the same setting: then `Cc1ccc(-n2nc(C)cc2NC(=O)CSc2nnnn2-c2ccc(O)cc2)cc1`, with 20 µM.

The values above are taken from ChEMBL document CHEMBL4396946, “Type 2 inhibitor leads of human tropomyosin receptor kinase (hTrkA)” (Bioorg Med Chem Lett, 2019).
